Laboratory results reported in PMC8298375 (Naunyn-Schmiedeberg's Archives of Pharmacology, 2021).
Where two headings read alike, the source gives them in different places.

What was measured:
[1] = test system: AChE; format: in vivo, rat; conditions: colchicine model
Method: Thiocholine, which was produced due to the hydrolysis of acetylthiocholine (ACTI) by AChE, was estimated by making it react with 5, 5′-dithiobis-(2-nitrobenzoic acid) (DTNB). The chemical, 5-thio-2-nitrobenzoic acid (yellow color complex), which was released due to reaction was estimated using a UV spectrophotometer in the range of 400 to 420 nm with maximal absorption at 412 nm. One hundred microliter of blank rat plasma was taken in the polypropylene vials. To this, 2.8 mL of phosphate buffer (0.01 M, pH 8) and 100 µL of DTNB reagents were added and mixed well. Then, 20 µL of ACTI (26.01 mg/mL of Milli-Q water) was added to the contents of the cuvette to initiate the enzyme reaction. The reaction kinetics was monitored at different time intervals (0, 1, 2, 3, 4 min), and absorbance was noted. 2.8 mL buffer (0.01 M, pH 8.0) and 100 µL DTNB reagent served as blank. Concentrations in the range of 0.03–30 mM were prepared using methanol as a diluent. […] Substrate concentration and reaction time were optimized such that sufficient concentration of ACTI is available to bind with the enzyme to initiate the reaction and also it should not saturate the enzyme. In this study, varying concentrations (100–1000 µM) of ACTI were prepared, and reaction kinetics were observed. In general, the maximum time should be either 2–4 min or even less, because the enzyme might undergo degradation. In the present study, up to 4 min of reaction kinetics (changing the optical density or absorbance) was measured. One unit of AChE activity is defined as the number of µmol of acetylthiocholine iodide hydrolyzed per minute. The specific activity of AChE is expressed in moles/min/mg of protein (Kaur et al. [2015]): AChEActivity=(abs.permin×1000×volumeofenzyme)/(13600×TRM)AChEActivity=abovevalue×1000(nanomolar/min/mL)
where 13,600 = molar extinction coefficient of DTNB: 1000-molar conversion factor: (TRM) total reaction mixture 3 mL: volume of enzyme (0.1 mL).

[2] = Pharmacokinetic study in scopolamine-induced amnesic rats (plasma); format: in vivo, Wistar rats; conditions: for Absolute F: absolute bioavailability; for Cl_F_obs: clearance; for DN Cmax: dose-normalised Cmax; for Vz_F_obs: volume of distribution
Method: Samples were then centrifuged at 10,000 rpm for 5 min, and plasma was stored at − 70 °C until analysis.
Briefly, to an aliquot of 100 µL of rat plasma, 10 µL of IS (1 µg/mL) was added and vortexed for 30 s. Then, 1 mL of TBME tertiary methyl butyl ether) was added and vortexed for 10 min, thereafter centrifuged at 10,000 rpm for 5 min. From the supernatant, 0.9 mL of organic solvent was aspirated and evaporated in a turbo evaporator (Zymark, Hopkinton, MA, USA) at 50 ± 2 °C under the stream of nitrogen. The dried residue was reconstituted with 150 µL of mobile phase, and 50 µL was injected for the HPLC analysis. A full validation according to the US-FDA guidelines was performed in rat plasma. Plasma samples were analyzed by previously validated HPLC with fluorescence detection method (Arumugam [2011]).
HPLC analysis was carried out on Shimadzu LC-20AD Prominence (Shimadzu Corporation, Kyoto, Japan) equipped with LC-20AD pump, RF-10A-XL fluorescence detector, column oven (CTO-10AS VP), autosampler SIL-20AC HT, and LC solution version 1.24 SP1. The column oven temperature was maintained at 25 °C. The chromatographic separation was achieved by Intersil, ODS-3 V, C18 (250 × 4.6 mm, 5 µm) column (GL Sciences Inc., Japan). Isocratic elution was performed with ammonium acetate buffer (20 mM, pH 4.5) and acetonitrile 74:26 (v/v) as mobile phase. The flow rate was maintained at 1 mL/min, and the injection volume was 50 µL. Fluorimetric detection was used, and excitation and emission wavelength were 220 nm and 293 nm, respectively. The sensitivity of the detector was “medium”, and the response kept at 3. Venlafaxine (IS) was prepared separately in methanol to yield primary standard solutions with a concentration of 1 mg/mL.
The pharmacokinetic parameters were calculated using non-compartmental analysis, PK solution 2.1software (Summit Research Services, Montrose, Colorado, USA). The area under the curve (AUC) from zero to infinity is calculated using the trapezoidal method. The terminal elimination rate constant (β) was obtained by plotting log-linear concentration versus time; the corresponding half-life (t1/2β) was calculated by 0.693/β. […] The clearance (CL) and volume of distribution (Vd) were calculated as follows: CL=Dose/AUC0-∞,Vd(apparent)=CL/β

[3] = test system: scopolamine-induced amnesia rats; test: Morris water maze test, scopolamine-induced amnesia (acute model); format: in vivo, Wistar rats; conditions: scopolamine 1 mg/kg i.p., Mean ± SEM; for Escape latency: test 15 min after treatment
Method: In the acute model, the rats were trained for Morris water maze (MWM) and passive avoidance test (PAT) tasks in the first 4 days. On the 5th day, 30 min after scopolamine administration, respective treatments were given to all the groups. Fifteen minutes thereafter, the test trials were conducted in MWM and PAT.
A modified Morris water maze test was used (Nampoothiri [2017]). The pool was positioned in the middle of a dimly lit testing room with distant visual clues that could be used by rats for spatial orientation. The maze consisted of a circular water pool (140 × 45 cm) divided into four equally sized quadrants (NE, SE, SW, and NW) by two imaginary diagonal lines running across the center of the pool. The pool was filled with water maintained at a temperature of 23 ± 2 °C. In the NE quadrant (target quadrant) equidistant from the center and edge of the pool, a platform of 25-cm height and 10-cm diameter was invisibly placed submerged 1 cm below the water surface. Rats were gently placed in each quadrant facing the wall and trained to locate the hidden black platform, and the trial was terminated when the rat reached the platform or after 60 s. Accordingly, rats were subjected to one session of four trials per day for four consecutive days. All rats were left on the platform for 30 s and then removed and towel dried. Inter-trial interval was kept a constant 180 s throughout the study. In the probe trial, platform was removed, and rats were allowed to swim for a 60-s trial period. Data was collected in the form of escape latencies to find the platform; percent of time spent over the target quadrant.

[4] = Wistar, rat, oral (ORSM), other: intranasal (INRSM)

## CCN(C)C(=O)Oc1cccc([C@H](C)N(C)C)c1 [INRSM, rivastigmine]
[1]
  peak AChE inhibition in rat plasma: 76.75%
  time of peak AChE inhibition in rat plasma: 15 min
[1]; 0 min, listed as COL + INRSM
  % AChE Inhibition in rat plasma: 0.00 ± 0.0608%
[1]; 5 min, listed as COL + INRSM
  % AChE Inhibition in rat plasma: 75.74 ± 0.0358%
[1]; 10 min, listed as COL + INRSM
  % AChE Inhibition in rat plasma: 70.41 ± 0.0540%
[1]; 20 min, listed as COL + INRSM
  % AChE Inhibition in rat plasma: 73.66 ± 0.0482%
[1]; 30 min, listed as COL + INRSM
  % AChE Inhibition in rat plasma: 67.33 ± 0.0474%
[1]; 45 min
  % AChE Inhibition in rat plasma: 64.43 ± 0.0388%
[1]; 90 min, listed as COL + INRSM
  % AChE Inhibition in rat plasma: 55.83 ± 0.0401%
[1]; 120 min, listed as COL + INRSM
  % AChE Inhibition in rat plasma: 47.15 ± 0.0392%
[1]; 180 min, listed as COL + INRSM
  % AChE Inhibition in rat plasma: 41.37 ± 0.0410%
[2]
  MRT: 32.12 ± 16.46 min
  Absolute F: 65.44 ± 14.57%
  Cl_F_obs: 100.95 ± 36.47 mL/min
  DN Cmax: 497.23 ± 235.52 ng/mL
  Vz_F_obs: 4.45 ± 1.72 L
[2]; Wistar, rat, inhaled or intranasal, 2 mg/kg
  Cmax: 994 ± 471 ng/mL
[2]; [4]
  Tmax: 5 min
  half-life: 30.5 ± 10.8 min
  k el: 0.000378 s⁻¹
[2]; Wistar, rat, other: intranasal, 2 mg/kg
  AUC(0-inf): 330 ng·h/mL
[3]; listed as SCP + INRSM
  Peripheral swim time: 34.22 ± 0.74 s
  Escape latency: 3.11 ± 0.36 s

## CCN(C)C(=O)Oc1cccc([C@H](C)N(C)C)c1 [ORSM, rivastigmine]
[1]
  peak AChE inhibition in rat plasma: 69.56%
  time of peak AChE inhibition in rat plasma: 45 min
[1]; 0 min, listed as COL + ORSM
  % AChE Inhibition in rat plasma: 0.00 ± 0.0811%
[1]; 5 min, listed as COL + ORSM
  % AChE Inhibition in rat plasma: 61.96 ± 0.0469%
[1]; 10 min, listed as COL + ORSM
  % AChE Inhibition in rat plasma: 66.76 ± 0.0195%
[1]; 15 min
  % AChE Inhibition in rat plasma: 65.00 ± 0.0292%
[1]; 20 min, listed as COL + ORSM
  % AChE Inhibition in rat plasma: 66.57 ± 0.0344%
[1]; 30 min, listed as COL + ORSM
  % AChE Inhibition in rat plasma: 66.82 ± 0.0101%
[1]; 60 min, listed as COL + ORSM
  % AChE Inhibition in rat plasma: 67.53 ± 0.0096%
[1]; 90 min, listed as COL + ORSM
  % AChE Inhibition in rat plasma: 61.88 ± 0.0149%
[1]; 120 min, listed as COL + ORSM
  % AChE Inhibition in rat plasma: 60.64 ± 0.0186%
[1]; 180 min, listed as COL + ORSM
  % AChE Inhibition in rat plasma: 47.43 ± 0.0393%
[2]; Wistar, rat, oral (ORSM), other: intranasal (INRSM), read-out: MRT (converted)
  MRT: 27.6 min
[2]; Wistar, rat, oral, 2.5 mg/kg, read-out: clearance rate
  clearance: 1500 ± 760 mL/min
[2]; Wistar, rat, oral, 2.5 mg/kg, read-out: volume of distribution
  Vd: 29.2 ± 14.3 L/kg
[2]; Wistar, rat, po
  Tmax: 15 min
  half-life: 13.5 ± 5.79 min
  k el: 0.000857 s⁻¹
[2]; Wistar, rat, po, 2.5 mg/kg
  AUC(0-inf): 27.7 ng·h/mL
  Cmax: 56.3 ± 27.1 ng/mL
[2]
  Absolute F: 4.39 ± 1.82%
  Cl_F_obs: 1502.59 ± 763.25 mL/min
  DN Cmax: 22.51 ± 10.82 ng/mL
  Vz_F_obs: 29.23 ± 14.35 L
[2]; listed as oral rivastigmine
  Absolute F: 4.39 ± 1.82%
[3]; listed as SCP + ORSM
  Escape latency: 3.89 ± 0.44 s
